# Laboratory results published in ChEMBL document CHEMBL1201862, “PubChem BioAssay data set” (2004).
# Where a name gives a salt, the structure may show the parent alone. Activity calls are given as the source filed them.
# Assays:
# Large T antigen = Large T antigen (Simian virus 40, UniProt P03070); type: functional, Betapolyomavirus macacae;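 further: Confirmatory-stage PubChem screen for compounds that inhibit SV40 T antigen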
# P388/ADR = assay: cells; type: functional; details: Mus musculus
# [1] = target: T1, Zinc finger protein mex-5 (Caenorhabditis elegans, UniProt Q9XUB2); assay: MEX-5/TCR-2 RNA interaction inhibitors, dose response, biochemical, C. elegans, fluorescence polarization (AID 1960)
# T1 sequence (Q9XUB2 whole entry): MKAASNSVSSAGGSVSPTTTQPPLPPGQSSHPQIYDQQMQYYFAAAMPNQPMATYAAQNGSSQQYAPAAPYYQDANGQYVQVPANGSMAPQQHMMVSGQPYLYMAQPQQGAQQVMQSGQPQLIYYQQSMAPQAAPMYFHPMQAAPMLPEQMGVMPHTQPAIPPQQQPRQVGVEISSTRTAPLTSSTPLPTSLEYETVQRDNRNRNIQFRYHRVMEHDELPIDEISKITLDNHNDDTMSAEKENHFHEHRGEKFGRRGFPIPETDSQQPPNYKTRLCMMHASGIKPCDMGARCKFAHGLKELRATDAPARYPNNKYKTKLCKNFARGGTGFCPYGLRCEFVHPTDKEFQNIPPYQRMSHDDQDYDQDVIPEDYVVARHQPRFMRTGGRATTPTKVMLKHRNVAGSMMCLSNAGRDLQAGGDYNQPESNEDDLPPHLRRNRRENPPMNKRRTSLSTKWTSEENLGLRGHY
# [2] = target: T2, RNA-binding protein pos-1 (Caenorhabditis elegans, UniProt G5EF15); assay: inhibitors of POS-1/mex-3 RNA binding, dose response, biochemical, fluorescence polarization (AID 1964);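 further: purified POS-1 fused to maltose binding protein made in E. coli; potency of compounds blocking POS-1 binding to fluorescent RNA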
# T2 sequence (G5EF15 whole entry): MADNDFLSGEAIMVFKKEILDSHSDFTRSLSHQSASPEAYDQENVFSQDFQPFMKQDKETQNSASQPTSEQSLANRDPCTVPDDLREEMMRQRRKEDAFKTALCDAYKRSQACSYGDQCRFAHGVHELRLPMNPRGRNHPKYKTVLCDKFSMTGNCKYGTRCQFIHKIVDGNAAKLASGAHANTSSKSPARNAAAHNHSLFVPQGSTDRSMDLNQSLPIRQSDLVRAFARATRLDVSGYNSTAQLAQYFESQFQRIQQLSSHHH
# cells [3] = type: functional, cell-based
# [4] = HEp-2 cell cytotoxicity, dose response, cytotoxicity control for RSV inhibitor project, HTS (AID 2410); type: functional; details: human respiratory syncytial virus
# cells [5] = type: functional, cell-based; remark: listed apart in the source
# [6] = target: FAD-linked sulfhydryl oxidase ALR (Homo sapiens, UniProt P55789); assay: inhibitors of human ALR sulfhydryl oxidase, dose response, biochemical, H2O2 detection, luminescence, cherry-pick (AID 493248)
# Protein skinhead-1 = target: T3, Protein skinhead-1 (Caenorhabditis elegans, UniProt P34707); type: functional
# T3 sequence (P34707 whole entry): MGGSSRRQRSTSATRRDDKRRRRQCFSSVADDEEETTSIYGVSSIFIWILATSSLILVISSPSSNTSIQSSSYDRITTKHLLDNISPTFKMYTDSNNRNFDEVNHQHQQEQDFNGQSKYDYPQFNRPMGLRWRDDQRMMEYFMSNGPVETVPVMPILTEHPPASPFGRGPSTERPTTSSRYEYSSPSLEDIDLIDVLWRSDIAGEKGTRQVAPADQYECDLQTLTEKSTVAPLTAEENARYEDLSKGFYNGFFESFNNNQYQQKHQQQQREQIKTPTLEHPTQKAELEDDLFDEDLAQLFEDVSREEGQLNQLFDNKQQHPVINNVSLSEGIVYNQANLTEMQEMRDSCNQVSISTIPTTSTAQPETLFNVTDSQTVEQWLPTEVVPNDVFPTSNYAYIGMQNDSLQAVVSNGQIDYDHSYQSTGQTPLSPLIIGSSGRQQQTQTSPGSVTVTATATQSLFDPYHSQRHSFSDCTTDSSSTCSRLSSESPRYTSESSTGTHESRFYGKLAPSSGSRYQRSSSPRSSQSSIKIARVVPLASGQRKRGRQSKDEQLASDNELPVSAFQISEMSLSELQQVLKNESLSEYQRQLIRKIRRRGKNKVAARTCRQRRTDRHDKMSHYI
# [7] = Shn3 3'UTR reporter inhibitors, dose response, cell-based, Clone20 osteoblasts, firefly luciferase, cherry-picked (AID 624132); type: functional;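 further: firefly luciferase luminescence from reporter carrying the Shn3 3'UTR in osteoblasts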
# [8] = Luminescence Cell-Based Dose Retest to Confirm Inhibitors of Cancer Stem Cells. [Related pubchem assays (depositor defined):AID2717, AID2721]; type: functional, Homo sapiens; details: Homo sapiens
# [9] = control 3'UTR Renilla luciferase suppression, dose response, counter-screen for Shn3 inhibitor project, cell-based, Clone20-Shn3RL, cherry-picked (AID 624133); type: functional
# [10] = HepG2 cell cytotoxicity, dose response, cytotoxicity control for Shn3 inhibitor project, CellTiter-Glo, cherry-picked (AID 624134); type: functional, cell-based
# Protein RecA = target: T4, Protein RecA (Mycobacterium tuberculosis, UniProt P9WHJ3); assay: Fluorescence Cell-Free Homogeneous Dose Retest to Identify Inhibitors of RecA-Intein Splicing Activity. [Related pubchem assays (depositor defined):AID2097, AID2223, AID489010, AID492950]; type: functional
# T4 sequence (P9WHJ3 whole entry): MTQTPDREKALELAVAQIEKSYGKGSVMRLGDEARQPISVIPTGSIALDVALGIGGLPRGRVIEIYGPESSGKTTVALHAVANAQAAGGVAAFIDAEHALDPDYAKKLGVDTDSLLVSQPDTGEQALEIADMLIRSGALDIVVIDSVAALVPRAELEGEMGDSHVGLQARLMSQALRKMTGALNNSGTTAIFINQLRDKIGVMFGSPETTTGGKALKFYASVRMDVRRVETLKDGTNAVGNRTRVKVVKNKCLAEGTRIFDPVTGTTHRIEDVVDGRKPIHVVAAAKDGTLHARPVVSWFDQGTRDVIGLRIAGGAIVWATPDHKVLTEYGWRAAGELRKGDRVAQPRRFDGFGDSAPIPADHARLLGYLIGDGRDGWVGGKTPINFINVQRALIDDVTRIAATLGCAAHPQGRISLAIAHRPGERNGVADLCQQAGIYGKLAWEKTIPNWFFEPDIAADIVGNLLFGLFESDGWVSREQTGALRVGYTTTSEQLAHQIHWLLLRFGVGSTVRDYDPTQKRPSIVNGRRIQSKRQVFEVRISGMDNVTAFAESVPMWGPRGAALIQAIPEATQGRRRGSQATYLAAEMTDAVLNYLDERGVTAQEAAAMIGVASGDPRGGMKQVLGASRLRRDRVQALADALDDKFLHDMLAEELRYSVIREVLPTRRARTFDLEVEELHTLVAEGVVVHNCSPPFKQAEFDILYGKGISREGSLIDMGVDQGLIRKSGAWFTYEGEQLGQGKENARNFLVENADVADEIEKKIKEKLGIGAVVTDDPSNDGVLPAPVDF
# [11] = target: T5, Replicative DNA helicase DnaB (Mycobacterium tuberculosis, UniProt P9WMR3); assay: DnaB intein splicing inhibitors, dose response, biochemical, cell-free fluorescence (AID 449749); type: functional
# T5 sequence (P9WMR3 whole entry): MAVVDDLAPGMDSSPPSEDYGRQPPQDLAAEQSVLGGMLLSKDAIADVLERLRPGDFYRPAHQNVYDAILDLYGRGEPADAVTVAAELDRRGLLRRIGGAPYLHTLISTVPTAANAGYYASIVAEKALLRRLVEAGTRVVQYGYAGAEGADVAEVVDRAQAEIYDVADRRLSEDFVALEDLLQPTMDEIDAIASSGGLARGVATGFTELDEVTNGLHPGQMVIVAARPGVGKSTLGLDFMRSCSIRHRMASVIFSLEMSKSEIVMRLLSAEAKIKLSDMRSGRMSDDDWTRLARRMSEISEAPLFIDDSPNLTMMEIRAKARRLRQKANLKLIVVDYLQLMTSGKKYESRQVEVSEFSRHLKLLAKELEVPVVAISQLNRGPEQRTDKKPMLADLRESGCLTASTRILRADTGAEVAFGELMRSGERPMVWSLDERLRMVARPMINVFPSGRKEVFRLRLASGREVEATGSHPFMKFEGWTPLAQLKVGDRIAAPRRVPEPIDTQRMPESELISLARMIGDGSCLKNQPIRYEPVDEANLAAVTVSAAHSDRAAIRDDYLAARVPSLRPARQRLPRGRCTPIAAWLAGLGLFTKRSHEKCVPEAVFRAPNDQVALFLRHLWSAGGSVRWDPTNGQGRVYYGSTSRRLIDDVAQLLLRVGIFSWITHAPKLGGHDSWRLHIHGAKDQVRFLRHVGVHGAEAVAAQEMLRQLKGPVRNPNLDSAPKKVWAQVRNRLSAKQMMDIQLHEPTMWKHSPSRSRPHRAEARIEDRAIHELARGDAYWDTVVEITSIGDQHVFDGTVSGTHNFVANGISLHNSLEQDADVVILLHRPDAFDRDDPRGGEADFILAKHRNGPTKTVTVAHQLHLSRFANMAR
# INS1 = assay: beta cell apoptosis inhibitors, cytokine rescue, dose response, luminescence, retest (AID 449756); type: functional, cell-based; details: Rattus norvegicus;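 further: cell death triggered by IL-1 beta plus TNF-alpha plus IFN-gamma mixture; protective hits raise ATP signal compared with cytokine alone wells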
# Large T antigen, sequence (P03070 whole entry): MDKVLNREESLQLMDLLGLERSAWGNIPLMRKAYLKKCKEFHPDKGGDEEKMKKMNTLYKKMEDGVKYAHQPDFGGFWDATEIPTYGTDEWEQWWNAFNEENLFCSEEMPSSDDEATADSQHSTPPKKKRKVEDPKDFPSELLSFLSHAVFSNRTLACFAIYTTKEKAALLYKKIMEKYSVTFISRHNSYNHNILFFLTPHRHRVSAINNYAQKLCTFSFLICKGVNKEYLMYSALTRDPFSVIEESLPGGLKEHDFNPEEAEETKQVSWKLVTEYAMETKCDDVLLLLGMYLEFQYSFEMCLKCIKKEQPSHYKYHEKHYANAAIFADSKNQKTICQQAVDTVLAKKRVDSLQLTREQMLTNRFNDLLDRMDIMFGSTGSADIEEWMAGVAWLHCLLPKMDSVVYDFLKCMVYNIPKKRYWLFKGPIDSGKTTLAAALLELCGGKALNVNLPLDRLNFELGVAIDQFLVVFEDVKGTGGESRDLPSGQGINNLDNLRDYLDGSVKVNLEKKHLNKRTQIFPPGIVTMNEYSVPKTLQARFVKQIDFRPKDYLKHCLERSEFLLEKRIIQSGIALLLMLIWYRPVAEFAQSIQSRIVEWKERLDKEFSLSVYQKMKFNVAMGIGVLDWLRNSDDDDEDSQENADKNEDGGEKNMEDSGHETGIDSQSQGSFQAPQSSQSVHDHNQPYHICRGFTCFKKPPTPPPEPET
# FAD-linked sulfhydryl oxidase ALR, sequence (P55789 whole entry): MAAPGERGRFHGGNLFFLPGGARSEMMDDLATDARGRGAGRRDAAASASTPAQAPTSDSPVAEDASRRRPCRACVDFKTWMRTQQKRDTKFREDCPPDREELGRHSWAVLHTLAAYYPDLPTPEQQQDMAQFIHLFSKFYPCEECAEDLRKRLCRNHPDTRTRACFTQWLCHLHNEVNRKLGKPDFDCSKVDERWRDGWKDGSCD
structure (smiles),measurement,setting,value
O=C1c2ccccc2NC2(CCCCC2)N1c1ccc(O)cc1,IC50,Large T antigen,12.5 µM (active)
Cc1cc2c(c3oc(C4(C)OC4C4OC4C)cc(=O)c13)C(=O)c1c(O)c(C3CC(C)(N(C)C)C(O)C(C)O3)cc(C3CC(N(C)C)C(O)C(C)O3)c1C2=O (centres undefined),GI50,P388/ADR,0.0025 µM (active)
Cc1ccc2[nH]c3c(c2c1)CN(C(=O)CN1CCN(C(=O)c2ccco2)CC1)CC3,EC50,[1],68 µM (active)
same,EC50,[2],112 µM (active)
COc1ccc(/C=N/NC(=O)c2ccoc2C)cc1O,EC50,cells [3],6.49 µM (active)
same,IC50,Large T antigen,9.6 µM (active)
same,CC50,[4],18.5 µM (active)
same,EC50,cells [5],> 350 µM (not active)
same,AC50,[6],1.2 µM (active)
O=C1CSC(=S)N1N1C(=O)c2cccc([N+](=O)[O-])c2C1=O,EC50,[1],24.8 µM (active)
same,EC50,[2],24.9 µM (active)
COC(=O)C1=C(C)N=c2s/c(=C/c3cccs3)c(=O)n2C1c1ccc(F)cc1 (centres undefined),IC50,Protein skinhead-1,> 100 µM (inactive)
COc1ccc([N+](=O)[O-])cc1NC(=O)C(C)OC(=O)CSC(C)C(=O)Nc1cc(C)on1 (centres undefined),IC50,Protein skinhead-1,> 100 µM (inactive)
COc1ccc2oc(C(F)(F)C(F)F)cc(=O)c2c1,IC50,Protein skinhead-1,> 100 µM (inactive)
O=S(=O)(c1cccc2c(S(=O)(=O)N3CCCC3)cccc12)N1CCCC1,IC50,Protein skinhead-1,> 100 µM (inactive)
CC(=O)c1ccc(N2CCN(c3ccc(S(=O)(=O)NCCCN(C)C)cc3[N+](=O)[O-])CC2)cc1,AC50,[7],3.78 µM (active)
same,AC50,[8],1.41 µM (active)
same,AC50,[9],36.7 µM (active)
same,AC50,[10],27.3 µM (active)
COc1ccccc1Nc1nc2nonc2nc1N1CCCCC1C (centres undefined),EC50,[1],> 300 µM (not active)
same,EC50,[2],95.5 µM (active)
N=c1c(C(=O)NC2CCCCC2)cc2c(=O)n3ccccc3nc2n1CCc1ccccc1,EC50,[1],16.1 µM (active)
same,EC50,[2],15.2 µM (active)
Cc1cc(O)cc2c1C(=O)/C(=C/c1ccco1)O2,EC50,[1],> 300 µM (not active)
same,EC50,[2],15.8 µM (active)
CCc1ccc(NC(=O)C(=O)N/N=C(\C)CC(=O)Nc2ccccn2)cc1,EC50,Protein RecA,> 380 µM (inactive)
same,AC50,[11],> 380 µM (inactive)
COc1cc(/C=C/C(=O)OCC(=O)N2CC(=O)Nc3ccccc32)ccc1O,IC50,Large T antigen,12.6 µM (active)
CCOc1ccc(CN(C)c2ccc(S(=O)(=O)N3CCN(C)CC3)cc2[N+](=O)[O-])cc1OC,AC50,[7],3.38 µM (active)
same,AC50,[9],5.91 µM (active)
same,AC50,[10],43 µM (active)
Cc1n[nH]c(S/C(=C/c2ccc(-c3cccc(Cl)c3)o2)C(=O)O)n1,EC50,[1],69.5 µM (active)
same,EC50,[2],> 300 µM (not active)
CC(C)(C)OC(=O)NCCCCC1=CC2=CC(=O)C(C)(OC(=O)c3ccco3)C(=O)C2=CO1 (centres undefined),EC50,[1],30.3 µM (active)
same,EC50,[2],35.5 µM (active)
Nc1cnc(Nc2ccc(Br)cc2)nc1N,IC50,Large T antigen,22.3 µM (active)
ClCCN(CCCl)c1ccc(C=Cc2ccncn2)cc1,IC50,Protein skinhead-1,> 100 µM (inactive)
O=Cc1coc2c(ccc3ccccc32)c1=O,IC50,Large T antigen,9.01 µM (active)
O=C(CSc1cccc2cccnc12)N/N=C/c1ccc(O)cc1,IC50,Large T antigen,11.6 µM (active)
Cc1onc(-c2ccccc2)c1-c1nc2cc(Cl)ccc2c(=O)o1,EC50,Protein RecA,158 µM (active)
same,AC50,[11],1.53 µM (active)
Clc1cccc(CSc2nc3cc[nH]cc-3n2)c1,EC50,[1],> 300 µM (not active)
same,EC50,[2],> 300 µM (not active)
O=c1c2ccccc2nc2n1C(CSCc1ccc(Cl)cc1Cl)CS2 (centres undefined),AC50,[7],1.45 µM (active)
same,AC50,[9],3.48 µM (active)
same,AC50,[10],46.2 µM (active)
CNc1c(N)n(Cc2ccccc2)c(=O)[nH]c1=O,EC50,[1],92.1 µM (inconclusive)
same,EC50,[2],> 300 µM (not active)
O=C(O)[C@H]1CCCC[C@H]1C(=O)Nc1ccc(Nc2ccccc2)cc1,IC50,Large T antigen,9.46 µM (active)
CC(C)NC(=N)NC(=N)Nc1ccc(Cl)cc1 [PROGUANIL HYDROCHLORIDE],AC50,[7],0.37 µM (active)
same,AC50,[9],0.403 µM (active)
NC(=Nc1ccc(N)cc1)C(N)=Nc1ccc(N)cc1,EC50,[1],42.8 µM (active)
same,EC50,[2],> 300 µM (not active)
C=CCc1cccc(/C=N/NC(=O)c2ccc3[nH]cnc3c2)c1O,EC50,cells [3],44.5 µM (active)
same,AC50,[8],3.81 µM (active)
same,EC50,cells [5],11.8 µM (active)
same,AC50,INS1,1.61 µM (active)
C=CSc1sc(Cl)c(N2CCOCC2)c1[N+](=O)[O-],EC50,Protein RecA,54.6 µM (active)
same,AC50,[11],11.1 µM (active)
